This assay is described as follows: Sensory evaluation of sweetness linger and taste by expert panel. The arrangement: key: 0=no sweetness linger; 1=very slight sweetness linger; 2 slight sweetness linger; 3=moderate sweetness linger; 4=moderately high sweetness linger; 5=high sweetness linger. As to conditions: scale 0-5. Here is the method: In a particular embodiment, a panel of assessors is used to measure the reduction of sweetness linger. Briefly described, a panel of assessors (generally 8 to 12 individuals) is trained to evaluate sweetness perception and measure sweetness at several time points from when the sample is initially taken into the mouth until 3 minutes after it has been expectorated. […] A decrease in score for a time point measured after the sample has cleared the mouth indicates there has been a reduction in sweetness perception.
The panel of assessors may be trained using procedures well known to those of ordinary skill in the art. In a particular embodiment, the panel of assessors may be trained using the Spectrum™ Descriptive Analysis Method (Meilgaard et al, Sensory Evaluation Techniques, 3rd edition, Chapter 11). Desirably, the focus of training should be the recognition of and the measure of the basic tastes; specifically, sweet. In order to ensure accuracy and reproducibility of results, each assessor should repeat the measure of the reduction of sweetness linger about three to about five times per sample, taking at least a five minute break between each repetition and/or sample and rinsing well with water to clear the mouth.
Generally, the method of measuring sweetness comprises taking a 10 mL sample into the mouth, holding the sample in the mouth for 5 seconds and gently swirling the sample in the mouth, rating the sweetness intensity perceived at 5 seconds, expectorating the sample (without swallowing following expectorating the sample), rinsing with one mouthful of water (e.g., vigorously moving water in mouth as if with mouth wash) and expectorating the rinse water, rating the sweetness intensity perceived immediately upon expectorating the rinse water, waiting 45 seconds and, while waiting those 45 seconds, identifying the time of maximum perceived sweetness intensity and rating the sweetness intensity at that time (moving the mouth normally and swallowing as needed), rating the sweetness intensity after another 10 seconds, rating the sweetness intensity after another 60 seconds (cumulative 120 seconds after rinse), and rating the sweetness intensity after still another 60 seconds (cumulative 180 seconds after rinse). Between samples take a 5 minute break, rinsing well with water to clear the mouth.
Sensory evaluation of the samples prepared in Example Set G was carried out under the following protocol, similar to that described hereinabove. In this test protocol, none of the samples were swallowed. […] Immediately upon sensing maximal sweetness, the sample was expectorated, the mouth was rinsed with water and the rate of sweetness decay (“Sweetness Linger”) was measured, where attention was focused on the sweetness 3-4 min after the water rinse. […]

Setting [1] is: Example Set G, citric acid/potassium citrate composition equivalent to diet lemon-lime beverage, sweetness 3-4 min after water rinse.
[2] abbreviates: Example Set H, carbon-treated water with phosphoric acid (75%), pH 2.4-2.5.

As for `OC[C@H]1O[C@@](CO)(O[C@H]2O[C@H](CO)[C@@H](O)[C@H](O)[C@H]2O)[C@@H](O)[C@@H]1O` [sugar, sucrose], the Sweetness linger stood at 0 under setting [1] and 0 under setting [2].
Consider rebaudioside A, for which the Sweetness linger by setting is: under setting [1], 5; under setting [2], 5.

These data come from patent US8945652B2, “High-potency sweetener for weight management and compositions sweetened therewith” (The Coca-Cola Company, priority 2005, dated 2015).
